Key:
Type in all cases: in vivo
[1] = system: Abutilon theophrasti; assay: Post-emergence herbicidal action against ABUTH
Summary of the method: (§1)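 Herbicidal action is a visual percentage rating (0% = as untreated control, 100% = plants dead) made roughly 3 weeks after treatment. Plants were grown in sandy loam in the greenhouse and treated at the one-leaf stage, 2 to 3 weeks post-sowing. Treatment was a foliar spray of wettable-powder or emulsion-concentrate formulations at 600 to 800 l/ha water plus 0.2% wetting agent.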

[2] = system: Amaranthus retroflexus; assay: Pre-emergence herbicidal action against AMARE; conditions: visual score after 3 weeks vs untreated controls
Summary of the method: (§2)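 Sandy loam pots, seeds covered with soil, then surface-treated with WP or EC formulations at 600–800 l/ha water plus 0.2% wetting agent. Greenhouse, 3 weeks. Percent damage vs untreated controls.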

[3] = system: Amaranthus retroflexus; assay: Post-emergence herbicidal action against AMARE; conditions: visual assessment about 3 weeks after treatment
Summary of the method: as §1

[4] = system: Echinochloa crus-galli; assay: Pre-emergence herbicidal action against ECHCG; conditions: 80 g/ha; visual score after 3 weeks vs untreated controls
Summary of the method: as §2

[5] = system: Echinochloa crus-galli; assay: Post-emergence herbicidal action against ECHCG; conditions: visual assessment about 3 weeks after treatment
Summary of the method: as §1

[6] = system: Setaria viridis; assay: Post-emergence herbicidal action against SETVI; conditions: visual assessment about 3 weeks after treatment
Summary of the method: as §1

[7] = system: Digitaria sanguinalis; assay: Post-emergence herbicidal action against DIGSA
Experimental: Seeds of monocotyledonous and dicotyledonous weed and crop plants are laid out in sandy loam soil in wood-fiber pots, covered with soil and cultivated in a greenhouse under good growth conditions. 2 to 3 weeks after sowing, the test plants are treated at the one-leaf stage. The compounds of the invention, formulated in the form of wettable powders (WP) or as emulsion concentrates (EC), are then sprayed onto the green parts of the plants in the form of an aqueous suspension or emulsion at a water application rate equivalent to 600 to 800 l/ha, with addition of 0.2% wetting agent. After the test plants have been left to stand in the greenhouse under optimal growth conditions for about 3 weeks, the action of the preparations is assessed visually in comparison to untreated controls (herbicidal action in percent (%): 100% activity=the plants have died, 0% activity=like control plants). […] The tables below illustrate, in an illustrative manner, the post-emergence herbicidal action of the compounds of the invention, the herbicidal activity being stated in percent.

[8] = system: Alopecurus myosuroides; assay: Pre-emergence herbicidal action against ALOMY; conditions: 80 g/ha; visual score after 3 weeks vs untreated controls
Summary of the method: as §2

[9] = system: Setaria viridis; assay: Pre-emergence herbicidal action against SETVI; conditions: 80 g/ha
Summary of the method: as §2

[10] = system: Digitaria sanguinalis; assay: Pre-emergence herbicidal action against DIGSA
Summary of the method: as §2

[11] = system: Veronica persica; assay: Post-emergence herbicidal action against VERPE; conditions: 20 g/ha, visual assessment about 3 weeks after treatment
Summary of the method: as §1

[12] = system: Abutilon theophrasti; assay: Pre-emergence herbicidal action against ABUTH; conditions: visual score after 3 weeks vs untreated controls
Summary of the method: as §2

[13] = system: Matricaria inodora; assay: Pre-emergence herbicidal action against MATIN; conditions: visual score after 3 weeks vs untreated controls
Summary of the method: as §2

[14] = system: Viola tricolor; assay: Pre-emergence herbicidal action against VIOTR
Summary of the method: as §2

[15] = system: Avena fatua; assay: Pre-emergence herbicidal action against AVEFA; conditions: 80 g/ha; visual score after 3 weeks vs untreated controls
Summary of the method: as §2

[16] = system: Viola tricolor; assay: Post-emergence herbicidal action against VIOTR
Summary of the method: as §1

[17] = system: Alopecurus myosuroides; assay: Post-emergence herbicidal action against ALOMY
Summary of the method: as §1

[18] = system: Avena fatua; assay: Post-emergence herbicidal action against AVEFA; conditions: 20 g/ha, visual assessment about 3 weeks after treatment
Summary of the method: as §1

[19] = system: Matricaria inodora; assay: Post-emergence herbicidal action against MATIN; conditions: visual assessment about 3 weeks after treatment
Summary of the method: as §1

[20] = system: Veronica persica; assay: Pre-emergence herbicidal action against VERPE; conditions: 80 g/ha
Summary of the method: as §2

[21] = system: Pharbitis purpurea; assay: Post-emergence herbicidal action against PHBPU; conditions: visual assessment about 3 weeks after treatment
Summary of the method: as §1

[22] = system: Polygonum convolvulus; assay: Pre-emergence herbicidal action against POLCO; conditions: 80 g/ha
Summary of the method: as §2

| SMILES | Post-emergence action against ABUTH ([1]; 20 g/ha) [%] | Pre-emergence action against AMARE ([2]; 20 g/ha) [%] | Pre-emergence action against AMARE ([2]; 80 g/ha) [%] | Post-emergence action against AMARE in % ([3]; 20 g/ha) [%] | Pre-emergence action against ECHCG [4] [%] | Post-emergence action against ECHCG in % ([5]; 20 g/ha) [%] | Post-emergence action against SETVI in % ([6]; 20 g/ha) [%] | Post-emergence action against DIGSA in % ([7]; 20 g/ha) [%] | Pre-emergence action against ALOMY [8] [%] | Pre-emergence action against SETVI [9] [%] | Pre-emergence action against DIGSA ([10]; 80 g/ha) [%] | Pre-emergence action against ABUTH ([12]; 20 g/ha) [%] | Pre-emergence action against ABUTH ([12]; 80 g/ha) [%] | Pre-emergence action against MATIN ([13]; 80 g/ha) [%] | Pre-emergence action against VIOTR ([14]; 80 g/ha) [%] | Pre-emergence action against AVEFA [15] [%] | Post-emergence action against VIOTR in % ([16]; 20 g/ha) [%] | Post-emergence action against AMARE in % ([3]; 5 g/ha) [%] | Post-emergence action against ALOMY ([17]; 20 g/ha) [%] | Post-emergence action against MATIN in % ([19]; 20 g/ha) [%] | other results |
| --- | --- | --- | --- | --- | --- | --- | --- | --- | --- | --- | --- | --- | --- | --- | --- | --- | --- | --- | --- | --- | --- |
| Cc1c(C(=O)Nc2nnnn2C)ccc(C(F)(F)F)c1C(=O)N(C)C [Example 1-19] | 100 | 100 | 100 | 100 | 90 | 90 | 100 | 90 | 80 | 100 | 100 | 90 | 100 | 90 | 100 | 80 | 80 | – | – | – | Post-emergence action against ABUTH ([1]; 5 g/ha): 90%; Post-emergence action against SETVI in % ([6]; 5 g/ha): 100%; Post-emergence action against DIGSA in % ([7]; 5 g/ha): 90%; Post-emergence action against VERPE in % [11]: 80% |
| CN(C(=O)c1c(C(F)(F)F)ccc(C(=O)Nc2nnnn2C)c1Cl)C1CC1 [Example 1-125] | – | 100 | 100 | 90 | 90 | – | 80 | 100 | 100 | 100 | 100 | 100 | 100 | 100 | 100 | 80 | 80 | 80 | 90 | 80 | Post-emergence action against ALOMY ([17]; 5 g/ha): 80%; Pre-emergence action against DIGSA ([10]; 20 g/ha): 100%; Post-emergence action against VERPE in % [11]: 90%; Post-emergence action against AVEFA in % [18]: 80%; Pre-emergence action against VIOTR ([14]; 20 g/ha): 100% |
| CCN(CC)C(=O)c1c(C(F)(F)F)ccc(C(=O)Nc2nnnn2C)c1Cl [Example 1-135] | 90 | 100 | 100 | 80 | 90 | 90 | – | 90 | 100 | 100 | 100 | 100 | 100 | 100 | 100 | 90 | 90 | 80 | 90 | 80 | Post-emergence action against ABUTH ([1]; 5 g/ha): 80%; Post-emergence action against ALOMY ([17]; 5 g/ha): 80%; Post-emergence action against ECHCG in % ([5]; 5 g/ha): 80%; Post-emergence action against DIGSA in % ([7]; 5 g/ha): 90%; Pre-emergence action against VERPE [20]: 90%; Post-emergence action against AVEFA in % [18]: 80%; Pre-emergence action against MATIN ([13]; 20 g/ha): 90%; Pre-emergence action against VIOTR ([14]; 20 g/ha): 100% |
| CCn1nnnc1NC(=O)c1ccc(C(F)(F)F)c(C(=O)N(C)C)c1C [Example 2-19] | 100 | – | 100 | 90 | 90 | 90 | 80 | 90 | 90 | 100 | 100 | 80 | 100 | 90 | 100 | – | 100 | 80 | 80 | 80 | Post-emergence action against SETVI in % ([6]; 5 g/ha): 80%; Pre-emergence action against VERPE [20]: 90%; Pre-emergence action against DIGSA ([10]; 20 g/ha): 100%; Post-emergence action against VERPE in % [11]: 80%; Pre-emergence action against VIOTR ([14]; 20 g/ha): 80%; Post-emergence action against VIOTR in % ([16]; 5 g/ha): 80% |
| CCN(CC)C(=O)c1c(C(F)F)ccc(C(=O)Nc2nnnn2CC)c1Cl [Example 2-166] | 90 | 100 | 100 | 100 | 90 | 80 | 90 | 90 | 90 | 100 | – | 100 | 100 | 100 | 100 | 80 | 80 | 100 | 90 | 80 | Post-emergence action against ABUTH ([1]; 5 g/ha): 80%; Post-emergence action against SETVI in % ([6]; 5 g/ha): 90%; Post-emergence action against DIGSA in % ([7]; 5 g/ha): 80%; Pre-emergence action against VERPE [20]: 100%; Post-emergence action against PHBPU in % ([21]; 5 g/ha): 80%; Post-emergence action against PHBPU in % ([21]; 20 g/ha): 90%; Pre-emergence action against POLCO [22]: 80%; Post-emergence action against AVEFA in % [18]: 80%; Post-emergence action against MATIN in % ([19]; 5 g/ha): 80%; Pre-emergence action against MATIN ([13]; 20 g/ha): 80% |
